Entries after “also recorded” stand apart in the source; their conditions may differ.
molecular target: protein kinase; assay: HTS ATP-utilizing enzyme assay, off-chip mobility-shift format (Caliper HTS 250); assay type: biochemical, human; settings: kinase(s) for which the compound exhibits protein kinase inhibitory activity; test compound 10 μM; active = greater than three-sigma from the mean activity of inactive compounds
Outline: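 Single-point screen at 10 μM compound in HEPES pH 7.5 buffer with Triton X-100 and BSA, 2.5 h at 20–22 °C. Substrate-to-phosphopeptide ratio measured by off-chip microfluidic mobility shift; EDTA wells as 100% and DMSO wells as 0% control, hits called at three-sigma limits.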

Row | Structure (SMILES) | Kinase
1 | Cn1c(SCC(=O)c2ccc3c(c2)OCCO3)nnc1-c1ccc(O)cc1 | GSK3-β and GSK3-α and MSK1
2 | Cc1ccc(-n2c(CNc3cccc(Cl)c3)nnc2SCC(=O)c2ccc(Cl)cc2)cc1 | LYNA
3 | COc1ccc(-n2c(COc3ccc4ccccc4c3)nnc2SCC(=O)O)cc1 | AURORA-A
4 | COc1ccc(C(=O)CSc2nnc(-c3cc4ccccc4cc3O)n2Cc2ccco2)cc1 | AURORA-A
5 | O=C(O)CSc1nnc(-c2ccc(O)cc2)n1Cc1ccco1 | GSK3-β; also recorded: GSK3-α
6 | O=C(CSc1nnc(-c2ccc(O)cc2)n1Cc1ccco1)c1ccccc1 | GSK3-β and GSK3-α and MSK2
7 | O=C(O)CSc1nnc(CNc2cccc(C(F)(F)F)c2)n1Cc1ccco1 | SRC and AURORA-A
8 | COc1cccc(OCc2nnc(SCC(=O)O)n2Cc2ccccc2)c1 | MSK1
9 | Cn1c(COc2cccc3ccccc23)nnc1SCC(=O)O | CDK2-cyclinA; also recorded: AURORA-A
10 | COc1ccc(-n2c(SCC(=O)O)nnc2-c2ccccc2OC)cc1 | AURORA-A
11 | COc1ccc(-n2c(SC(C)C(=O)O)nnc2-c2ccc(NC(=O)c3ccccc3)cc2)cc1 (stereo not shown) | CHEK2; also recorded: AURORA-A
12 | Cn1c(SCC(=O)c2ccccc2)nnc1-c1ccc(O)cc1 | GSK3-β and GSK3-α and MSK1
13 | COCCCn1c(SCC(=O)O)nnc1-c1ccc(C(C)(C)C)cc1 | CHEK2
14 | CCn1c(COc2ccc(Cl)c(C)c2)nnc1SCC(=O)O | MSK1
15 | Cc1ccc(-n2c(CNc3ccc(F)cc3)nnc2SCC(=O)O)cc1 | DAPK1; also recorded: AURORA-A
16 | COc1ccc(C(=O)CSc2nnc(C3CCCCC3)n2C)cc1 | SYK
17 | C=CCn1c(Sc2c(O)nc3ccccc3c2-c2ccccc2)nnc1-c1ccc(Cl)c(Cl)c1 | FLT-3
18 | Cc1ccc(-n2c(SCC(=O)CC(=O)Nc3ccccc3)nnc2-c2cccnc2)cc1 | AURORA-A
19 | COc1ccc(NCc2nnc(S)n2-c2ccc(OC)cc2)cc1 | PDGFRR-α; also recorded: AURORA-A; also recorded: GSK3-α
20 | Cn1c(SCC(=O)OC2CCCCC2)nnc1-c1cc2ccccc2cc1O | AURORA-A; also recorded: DAPK1; also recorded: c-TAK1
21 | CCOC(=O)CSc1nnc(-c2ccc(O)cc2)n1Cc1ccco1 | GSK3-β; also recorded: GSK3-α
22 | CCOC(=O)CSc1nnc(COc2ccc3ccccc3c2)n1C | MAPKAPK-2
23 | CCOC(=O)CSc1nnc(-c2cc3ccccc3cc2O)n1C | FYN
24 | CCOC(=O)CSc1nnc(CNc2cc(Cl)ccc2Cl)n1CC | DYRK2
25 | CCOC(=O)CSc1nnc(CNc2ccc(C)c(Cl)c2)n1CC1CCCO1 (stereo not shown) | CHEK2
26 | COc1ccc(NCc2nnc(SCC(=O)OC(C)C)n2-c2ccc(OC)cc2)cc1 | FYN and CDK2-cyclinE
27 | CC(C)OC(=O)CSc1nnc(-c2cccnc2)n1Cc1ccco1 | AKT1
28 | COCCn1c(SCC(=O)OC(C)C)nnc1-c1cc2ccccc2cc1O | FYN
29 | CCn1c(CNc2cccc(C(F)(F)F)c2)nnc1SCC(=O)Oc1ccc(C)cc1 | CDK2-cyclinA and CDK1 and CHEK2

Next, values leading:

Row | Kinase | Structure (SMILES)
30 | MSK2 and FYN and HCK | Cn1c(SCC(=O)c2ccc(O)c(O)c2)nnc1-c1ccccc1
31 | AURORA-A | O=C(CSc1nnc(-c2cc3ccccc3cc2O)n1Cc1ccco1)c1ccc(F)cc1
32 | AKT1 | COCCn1c(SCC(=O)c2ccccc2)nnc1-c1ccc(OC)cc1
33 | CDK2-cyclinA and CDK2-cyclinE and CDK1 | COc1ccc(-n2c(SCC(=O)O)nnc2-c2ccc(NS(=O)(=O)c3ccc(C)cc3)cc2)cc1
34 | PDGFRR-α and FYN | COc1ccc(NCc2nnc(SCC(=O)O)n2-c2ccc(OC)cc2)cc1
35 | AURORA-A | COc1ccc(-n2c(COc3cccc(C)c3)nnc2SC(C)C(=O)O)cc1 (stereo not shown)
36 | GSK3-α | O=C(CSc1nnc(-c2ccc(O)cc2)n1Cc1ccccc1)c1ccccc1
37 | HCK | Cc1cc(OCc2nnc(SCC(=O)O)n2Cc2ccccc2)ccc1Cl
38 | FYN | CCn1c(SCC(=O)O)nnc1-c1cc2c(C)nn(-c3ccccc3)c2s1
39 | MSK1 and MSK2 and GSK3-β | CCn1c(SCC(=O)c2cccs2)nnc1-c1ccc(O)cc1
40 | AURORA-A | CCn1c(SCC(=O)c2ccc(C)cc2)nnc1-c1ccc(S(=O)(=O)N2CCCCCC2)cc1
41 | CHEK2 | O=C(O)CSc1nnc(-c2ccc(S(=O)(=O)N3CCOCC3)cc2)n1-c1ccccc1
42 | CHEK2 | COc1ccc(-n2c(SCC(=O)O)nnc2-c2ccc(NC(=O)c3ccccc3)cc2)cc1
43 | GSK3-β; also recorded: MAPKAPK-2 | COc1ccc(-n2c(SC(C)C(=O)O)nnc2-c2ccc(O)cc2)cc1 (stereo not shown)
44 | GSK3-α | O=C(CSc1nnc(-c2ccc(O)cc2)n1-c1ccccc1)c1ccccc1
45 | PDGFRR-α | O=C(O)CSc1nnc(-c2ccc([N+](=O)[O-])cc2)n1CC1CCCO1 (stereo not shown)
46 | PDGFRR-α | CCn1c(CNc2ccc(C)c(Cl)c2)nnc1SCC(=O)O
47 | AURORA-A | Cn1c(COc2ccc(Br)cc2)nnc1SCC(=O)O
48 | AURORA-A | Cc1cc(OCc2nnc(SC(C)C(=O)O)n2-c2ccccc2)ccc1Cl (stereo not shown)
49 | AURORA-A | COc1ccc(OCc2nnc(SCC(=O)O)n2-c2ccc(C)cc2)cc1
50 | FYN( and PDGFRR-α | COc1ccc(NCc2nnc(SC(C)C(=O)O)n2-c2ccccc2)cc1 (stereo not shown)

Row | Kinase | Structure (SMILES)
51 | CHEK2 and SYK | COc1ccc(C(=O)CSc2nnc(CNc3ccc(C)cc3)n2-c2ccccc2)cc1
52 | C-TAK1 | COc1cccc(OC(=O)CSc2nnc(CNc3c(C)cccc3C)n2-c2ccccc2)c1
53 | AURORA-A | O=C(CSc1nnc(-c2cccnc2)n1-c1ccccc1)CC(=O)Nc1ccccc1
54 | GSK3-β | Cn1c(SCSC#N)nnc1-c1ccc(S(=O)(=O)N2CCOCC2)cc1
55 | AURORA-A | O=C(CSc1nnc(-c2cccnc2)n1Cc1ccccc1)CC(=O)Nc1ccccc1
56 | AURORA-A | Cn1c(SCC(=O)CC(=O)Nc2ccccc2)nnc1-c1ccc(O)cc1
57 | AURORA-A; also recorded: GSK3-α | O=C(CSc1nnc(-c2ccc(O)cc2)n1-c1ccccc1)CC(=O)Nc1ccccc1
58 | GSK3-α; also recorded: GSK3-β | CCn1c(S)nnc1-c1ccc(S(=O)(=O)N2CCN(C)CC2)cc1
59 | GSK3-α | O=c1c(Sc2nnc(-c3ccccc3)n2C2CCCCC2)c(Br)cnn1-c1ccccc1
60 | GSK3-α | COc1cc(C(=O)CSc2nnc(-c3ccc(O)cc3)n2Cc2ccco2)ccc1NC(C)=O
61 | GSK3-β; also recorded: GSK3-α | CCC(=O)Nc1ccc(C(=O)CSc2nnc(-c3ccc(O)cc3)n2Cc2ccco2)cc1OC
62 | GSK3-α | O=C(CSc1nnc(-c2ccccc2O)n1Cc1ccco1)OCc1ccccc1
63 | CDK2-cyclinE and MSK1 | COCCCn1c(SCC(=O)OCc2ccccc2)nnc1-c1ccc(OC)cc1
64 | GSK3-α; also recorded: AURORA-A | COc1ccccc1-n1c(SCC(=O)OCc2ccccc2)nnc1-c1ccco1
65 | FLT-3 | COc1ccc(-c2nnc(SCC(=O)OC3CCCCCC3)n2-c2cccc(C(F)(F)F)c2)cc1
66 | DAPK1 | COCCn1c(SCC(=O)OC2CCCCC2)nnc1-c1cc2ccccc2cc1O
67 | PAK2 and CHEK1 | Cc1ccc(NCc2nnc(SCC(=O)OC3CCCCC3)n2-c2ccccc2)cc1Cl
68 | AURORA-A | CCOC(=O)CSc1nnc(-c2ccccc2O)n1-c1ccccc1OC
69 | PDGFRR-α and FYN | COC(=O)CSc1nnc(CNc2ccc(OC)cc2)n1C
70 | PDGFRR-α | COC(=O)CSc1nnc(CNc2ccc(OC)cc2)n1-c1ccccc1

Reference: patent US20050288347A1, “Certain triazole-based compounds, compositions, and uses thereof” (priority 2004, published 2005)
